Assay: xn = mol fraction of the nth substance listed
Settings: 328.15 K, Liquid

CCCCCCCCC [nonane] + C1CCCCC1
Settings | mass density [kg/m3]
100 kPa, x2 = 0 | 690.5
100 kPa, x2 = 0.09303 | 693.4
100 kPa, x2 = 0.2009 | 697
100 kPa, x2 = 0.3051 | 700.9
100 kPa, x2 = 0.417 | 705.3
100 kPa, x2 = 0.512 | 709.7
100 kPa, x2 = 0.5996 | 714.5
100 kPa, x2 = 0.7052 | 720.8
100 kPa, x2 = 0.7993 | 727.5
100 kPa, x2 = 0.9039 | 735.7
101 kPa, x2 = 0 | 690.88
101 kPa, x2 = 0.1022 | 693.98
101 kPa, x2 = 0.1548 | 695.7
101 kPa, x2 = 0.2009 | 697.27
101 kPa, x2 = 0.2591 | 699.37
101 kPa, x2 = 0.3306 | 702.13
101 kPa, x2 = 0.4003 | 705.03
101 kPa, x2 = 0.4596 | 707.71
101 kPa, x2 = 0.5321 | 711.23
101 kPa, x2 = 0.612 | 715.53
101 kPa, x2 = 0.6649 | 718.62
101 kPa, x2 = 0.7224 | 722.28
101 kPa, x2 = 0.8047 | 728.07
101 kPa, x2 = 0.8686 | 733.12
101 kPa, x2 = 0.9405 | 739.53
2130 kPa, x2 = 0 | 691.4
2130 kPa, x2 = 0.09303 | 694.3
2130 kPa, x2 = 0.2009 | 697.9
2130 kPa, x2 = 0.3051 | 701.8
2130 kPa, x2 = 0.417 | 706.3
2130 kPa, x2 = 0.512 | 710.7
2130 kPa, x2 = 0.5996 | 715.6
2130 kPa, x2 = 0.7052 | 721.9
2130 kPa, x2 = 0.7993 | 728.6
2130 kPa, x2 = 0.9039 | 737
4150 kPa, x2 = 0 | 694.4
4150 kPa, x2 = 0.09303 | 697.3
4150 kPa, x2 = 0.2009 | 700.9
4150 kPa, x2 = 0.3051 | 704.8
4150 kPa, x2 = 0.417 | 709.3
4150 kPa, x2 = 0.512 | 713.7
4150 kPa, x2 = 0.5996 | 718.6
4150 kPa, x2 = 0.7052 | 724.9
4150 kPa, x2 = 0.7993 | 731.6
4150 kPa, x2 = 0.9039 | 739.9
6180 kPa, x2 = 0 | 696.3
6180 kPa, x2 = 0.09303 | 699.2
6180 kPa, x2 = 0.2009 | 702.8
6180 kPa, x2 = 0.3051 | 706.7
6180 kPa, x2 = 0.417 | 711.2
6180 kPa, x2 = 0.512 | 715.6
6180 kPa, x2 = 0.5996 | 720.5
6180 kPa, x2 = 0.7052 | 726.9
6180 kPa, x2 = 0.7993 | 733.5
6180 kPa, x2 = 0.9039 | 741.9
8210 kPa, x2 = 0 | 698.1
8210 kPa, x2 = 0.09303 | 701
8210 kPa, x2 = 0.2009 | 704.7
8210 kPa, x2 = 0.3051 | 708.6
8210 kPa, x2 = 0.417 | 713.1
8210 kPa, x2 = 0.512 | 717.5
8210 kPa, x2 = 0.5996 | 722.4
8210 kPa, x2 = 0.7052 | 728.8
8210 kPa, x2 = 0.7993 | 735.5
8210 kPa, x2 = 0.9039 | 743.9
10230 kPa, x2 = 0 | 699.9
10230 kPa, x2 = 0.09303 | 702.8
10230 kPa, x2 = 0.2009 | 706.5
10230 kPa, x2 = 0.3051 | 710.4
10230 kPa, x2 = 0.417 | 714.9
10230 kPa, x2 = 0.512 | 719.3
10230 kPa, x2 = 0.5996 | 724.3
10230 kPa, x2 = 0.7052 | 730.7
10230 kPa, x2 = 0.7993 | 737.3
10230 kPa, x2 = 0.9039 | 745.8
11250 kPa, x2 = 0 | 700.8
11250 kPa, x2 = 0.09303 | 703.7
11250 kPa, x2 = 0.2009 | 707.4
11250 kPa, x2 = 0.3051 | 711.3
11250 kPa, x2 = 0.417 | 715.8
11250 kPa, x2 = 0.512 | 720.2
11250 kPa, x2 = 0.5996 | 725.2
11250 kPa, x2 = 0.7052 | 731.6
11250 kPa, x2 = 0.7993 | 738.3
11250 kPa, x2 = 0.9039 | 746.7
12260 kPa, x2 = 0 | 701.7
12260 kPa, x2 = 0.09303 | 704.6
12260 kPa, x2 = 0.2009 | 708.3
12260 kPa, x2 = 0.3051 | 712.2
12260 kPa, x2 = 0.417 | 716.7
12260 kPa, x2 = 0.512 | 721.1
12260 kPa, x2 = 0.5996 | 726.1
12260 kPa, x2 = 0.7052 | 732.5
12260 kPa, x2 = 0.7993 | 739.2
12260 kPa, x2 = 0.9039 | 747.7
14290 kPa, x2 = 0 | 703.4
14290 kPa, x2 = 0.09303 | 706.3
14290 kPa, x2 = 0.2009 | 710.1
14290 kPa, x2 = 0.3051 | 714
14290 kPa, x2 = 0.417 | 718.5
14290 kPa, x2 = 0.512 | 722.9
14290 kPa, x2 = 0.5996 | 727.9
14290 kPa, x2 = 0.7052 | 734.4
14290 kPa, x2 = 0.7993 | 741
14290 kPa, x2 = 0.9039 | 749.5
16310 kPa, x2 = 0 | 705.1
16310 kPa, x2 = 0.09303 | 708
16310 kPa, x2 = 0.2009 | 711.8
16310 kPa, x2 = 0.3051 | 715.7
16310 kPa, x2 = 0.417 | 720.2
16310 kPa, x2 = 0.512 | 724.6
16310 kPa, x2 = 0.5996 | 729.7
16310 kPa, x2 = 0.7052 | 736.1
16310 kPa, x2 = 0.7993 | 742.8
16310 kPa, x2 = 0.9039 | 751.3
18340 kPa, x2 = 0 | 706.8
18340 kPa, x2 = 0.09303 | 709.6
18340 kPa, x2 = 0.2009 | 713.4
18340 kPa, x2 = 0.3051 | 717.3
18340 kPa, x2 = 0.417 | 721.9
18340 kPa, x2 = 0.512 | 726.3
18340 kPa, x2 = 0.5996 | 731.4

— the NIST ThermoML archive (doi:10.1016/j.jct.2007.04.005)
